# Activity calls are given as the source filed them.
# Columns and labels:
# [1] = target: Glucose-6-phosphate 1-dehydrogenase (Homo sapiens, UniProt P11413); test: human G6PD enzyme inhibitors, dose response, selectivity assay for P. falciparum G6PD inhibitor project, biochemical, fluorescence (AID 504792); format: functional
# [2] = target: Induced myeloid leukemia cell differentiation protein Mcl-1 (Homo sapiens, UniProt Q07820); format: functional
# [3] = target: T1, Heat shock factor protein 1 (Mus musculus, UniProt P38532); test: HSF1 potentiators in luciferase reporter cells, confirmation, cell-based, NIH3T3, luminescence, dose retest (AID 435004); format: functional;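 also: stress induced by proteasome inhibitor MG132 added 30 min after compound; luciferase reporter driven by HSF1 response element in NIH3T3 cells; actives raise luminescence as potentiators of the MG132 stress response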
# T1 sequence (P38532 whole entry): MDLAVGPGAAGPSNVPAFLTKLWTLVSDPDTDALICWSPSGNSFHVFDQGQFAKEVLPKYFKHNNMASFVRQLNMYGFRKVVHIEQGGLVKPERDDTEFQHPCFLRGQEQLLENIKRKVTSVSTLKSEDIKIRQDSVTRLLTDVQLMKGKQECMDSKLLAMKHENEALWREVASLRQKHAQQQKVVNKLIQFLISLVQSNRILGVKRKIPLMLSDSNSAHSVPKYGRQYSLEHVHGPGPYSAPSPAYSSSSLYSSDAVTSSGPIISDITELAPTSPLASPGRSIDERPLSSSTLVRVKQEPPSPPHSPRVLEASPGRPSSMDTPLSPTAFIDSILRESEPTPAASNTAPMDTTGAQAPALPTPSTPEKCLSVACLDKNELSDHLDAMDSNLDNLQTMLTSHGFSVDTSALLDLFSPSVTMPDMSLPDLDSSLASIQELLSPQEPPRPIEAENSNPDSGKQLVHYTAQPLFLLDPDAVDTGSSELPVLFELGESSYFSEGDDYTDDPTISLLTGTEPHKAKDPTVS
# [4] = target: T2, DNA dC->dU-editing enzyme APOBEC-3A (Homo sapiens, UniProt P31941); test: APOBEC3A DNA deaminase inhibitors, dose response, biochemical (AID 504722); format: functional
# [5] = target: T3, DNA dC->dU-editing enzyme APOBEC-3G (Homo sapiens, UniProt Q9HC16); test: Dose Response confirmation of small molecule APOBEC3G DNA Deaminase Inhibitors via a fluorescence-based single-stranded DNA deaminase assay. [Related pubchem assays (depositor defined):AID493012, AID493028]; format: functional
# [6] = target: T4, Voltage-gated N-type calcium channel alpha-1B subunit/Amyloid beta A4 precursor protein-binding family A member 1 (Homo sapiens, UniProt Q00975+Q02410); format: protein assay
# [7] = THP-1 cell cytotoxicity, dose response, cytotoxicity control for non-replicating M. tuberculosis project (AID 489025); format: functional
# Large T antigen = Large T antigen (Simian virus 40, UniProt P03070); format: functional, Betapolyomavirus macacae;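 also: Confirmatory-stage PubChem screen for compounds that inhibit SV40 T antigen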
# [8] = target: T4, Voltage-gated N-type calcium channel alpha-1B subunit/Amyloid beta A4 precursor protein-binding family A member 1; format: protein assay; remark: listed apart in the source
# Streptococcus = test: Group A Streptococcus viability loss, dose response, counter-screen for streptokinase expression inhibitor project, luminescence, BacTiterGlo (AID 1915); format: functional, organism-based;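 also: potency for reduction of bacterial viability or growth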
# Streptokinase A = target: T5, Streptokinase A (Streptococcus pyogenes serotype M1, UniProt P10520); test: S. pyogenes streptokinase expression inhibitors, potency, dose response, plasminogen activation absorbance, OD405 (AID 1914); format: functional, Streptococcus pyogenes M1 GAS;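 also: secreted streptokinase activity via plasminogen activation per viability signal from cell pellet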
# T5 sequence (P10520 whole entry): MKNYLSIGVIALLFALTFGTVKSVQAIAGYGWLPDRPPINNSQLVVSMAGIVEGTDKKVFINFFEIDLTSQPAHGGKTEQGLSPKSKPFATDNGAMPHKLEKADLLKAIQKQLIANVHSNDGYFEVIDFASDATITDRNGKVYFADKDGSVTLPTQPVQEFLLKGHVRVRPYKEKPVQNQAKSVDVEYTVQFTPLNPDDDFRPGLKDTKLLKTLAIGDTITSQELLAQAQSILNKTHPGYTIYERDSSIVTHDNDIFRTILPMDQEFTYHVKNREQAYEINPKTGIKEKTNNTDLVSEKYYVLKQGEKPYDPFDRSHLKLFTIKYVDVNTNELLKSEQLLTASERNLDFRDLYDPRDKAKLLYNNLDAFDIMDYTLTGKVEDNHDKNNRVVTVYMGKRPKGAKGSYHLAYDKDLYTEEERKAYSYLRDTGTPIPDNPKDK
# [9] = target: T6, Intestinal-type alkaline phosphatase (Homo sapiens, UniProt P09923); test: human intestinal alkaline phosphatase activators, dose response, biochemical, luminescence, uHTS hits (AID 463120); format: functional
# [10] = target: Intestinal-type alkaline phosphatase (Mus musculus, UniProt P24822); test: PubChem AID 488874; format: functional
# [11] = target: T6, Intestinal-type alkaline phosphatase; test: human IAP activators, dose response, biochemical, luminescent, uHTS hits, set 2 (AID 488817); format: functional;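 also: potency of activators that raise enzyme activity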
# [12] = system: Streptococcus sp. 'group A'; test: growth inhibition of control SK(-) GAS strain, dose response, counter-screen for streptokinase expression inhibitor project, luminescence, kanamycin, BacTiterGlo, confirmation (AID 1900); format: functional, organism-based
# [13] = target: T7, Alkaline phosphatase, tissue-nonspecific isozyme (Homo sapiens, UniProt P05186); test: TNAP enzyme activators, dose response, selectivity assay for human IAP activator project, biochemical, TNAP isozyme, human IAP uHTS hits (AID 488886); format: functional;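 also: potency of compounds raising TNAP activity as a selectivity check on IAP activators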
# T7 sequence (P05186 whole entry): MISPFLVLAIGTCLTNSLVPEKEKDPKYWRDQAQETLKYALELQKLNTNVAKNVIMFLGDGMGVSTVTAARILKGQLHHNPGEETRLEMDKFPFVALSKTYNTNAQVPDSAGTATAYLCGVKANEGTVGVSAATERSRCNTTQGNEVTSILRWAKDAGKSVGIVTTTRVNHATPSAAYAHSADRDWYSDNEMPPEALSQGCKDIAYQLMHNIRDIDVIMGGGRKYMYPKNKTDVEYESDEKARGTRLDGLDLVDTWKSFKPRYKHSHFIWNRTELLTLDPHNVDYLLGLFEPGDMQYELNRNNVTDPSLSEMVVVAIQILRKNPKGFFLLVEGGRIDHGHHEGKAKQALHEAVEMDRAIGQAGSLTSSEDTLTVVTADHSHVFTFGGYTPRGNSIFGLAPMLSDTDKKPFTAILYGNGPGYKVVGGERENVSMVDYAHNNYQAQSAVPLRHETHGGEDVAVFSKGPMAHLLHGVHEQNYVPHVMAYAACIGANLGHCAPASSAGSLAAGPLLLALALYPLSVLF
# HEK293 [14] = test: cells; details: Homo sapiens
# HEK293 [15] = test: cells; details: Homo sapiens; remark: listed apart in the source
# HEK293 [16] = test: cells; format: functional, cell-based; details: Homo sapiens
# HEK293 [17] = test: NOD2 signaling inhibitors in MDP-stimulated cells, cell-based, uHTS, luminescence (AID 2001); format: functional; details: Homo sapiens
# HEK293 [18] = test: NOD1 signaling inhibitors, primary screen, cell-based, luminescence, uHTS (AID 1578); format: functional; details: Homo sapiens
# HEK293 [19] = test: cells; format: functional, cell-based; details: Homo sapiens; remark: listed apart in the source
# [20] = target: Polyadenylate-binding protein 1 (Homo sapiens, UniProt P11940); test: PABP poly(A) RNA binding inhibitors, primary screen, biochemical, fluorescence polarization, uHTS (AID 2014)
# [21] = target: T2, DNA dC->dU-editing enzyme APOBEC-3A; test: Dose Response confirmation of small molecule APOBEC3A DNA Deaminase Inhibitors via a fluorescence-based single-stranded DNA deaminase assay. [Related pubchem assays (depositor defined):AID493011, AID493024]; format: functional
# [22] = target: Eukaryotic translation initiation factor 4H (Homo sapiens, UniProt Q15056); test: human eIF4H binding inhibitors, primary screen, translation initiation inhibitor project, biochemical, uHTS, fluorescence polarization (AID 2012)
# [23] = target: T3, DNA dC->dU-editing enzyme APOBEC-3G; format: functional
# [24] = insulin promoter down-regulators in MIN6 cells, imaging, high-content screening, mouse beta cells (AID 1628); format: functional
# [25] = ZM109 Env clade C HIV-1 fusion inhibitors, dose response, HeLa effector, CEM target cells, luciferase, cherry-pick (AID 652058); format: functional, cell-based
# [26] = inhibitors of clade B AD8 Env fusion, dose response, cell-based, cherry-pick (AID 652062); format: functional;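 also: luciferase signal from cell-cell fusion driven by HIV-1 clade B AD8 Env; potency is for inhibitors of fusion seen as a drop in luminescence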
# [27] = microbe, parasite or virus in culture; format: functional; details: Mycobacterium tuberculosis
# INS1 = test: beta cell apoptosis inhibitors, cytokine rescue, dose response, luminescence, retest (AID 449756); format: functional, cell-based; details: Rattus norvegicus;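 also: cell death triggered by IL-1 beta plus TNF-alpha plus IFN-gamma mixture; protective hits raise ATP signal compared with cytokine alone wells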
# [28] = growth suppression of PTEN-null colon cells, dose response, cell-based, HCT116 PTEN knockout (AID 1047); format: functional;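 also: HCT116 colon tumor cells with PTEN knocked out; cells exposed to compound for 60 hours before readout; potency for loss of cell viability measured by luminescence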
# [29] = growth suppression of beta-catenin-knockout colon cells, dose response, cell-based, HCT116, human colon tumor (AID 1045); format: functional;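 also: HCT116 colon tumor cells with beta catenin knocked out; cells exposed to compound for 60 hours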
# [30] = cytotoxicity in MIN6 insulinoma cells, dose response, cytotoxicity control, cell-based, mouse insulinoma (AID 2122); format: functional;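 also: confirmatory high-throughput counterscreen run to flag cytotoxic compounds; mouse MIN-6 beta cells carrying an insulin promoter eGFP reporter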
# Cytochrome P450 3A4 = Cytochrome P450 3A4 (Homo sapiens, UniProt P08684);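 also: CYP3A4 tested as one member of a cytochrome P450 panel screen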
# [31] = off-target signal loss in HeLa-CEM21 co-culture – HeLa F-luc CTL cells, cherry-picked, counter-screen for HIV-1 Env fusion inhibitor project, dose response (AID 652040); format: functional, cell-based;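 also: potency for signal decrease marking cytotoxic or nonspecific inhibition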
# [32] = inhibitors of HIV Env-driven cell fusion, dose response, cherry-pick (AID 652057); format: functional, cell-based
# [33] = target: T8, Rac GTPase-activating protein 1 (Homo sapiens, UniProt Q9H0H5); test: MgcRacGAP GTPase-activating activity inhibitors, confirmation, biochemical, ADP Hunter fluorescence, primary and confirmatory (AID 624330); format: functional
# T8 sequence (Q9H0H5 whole entry): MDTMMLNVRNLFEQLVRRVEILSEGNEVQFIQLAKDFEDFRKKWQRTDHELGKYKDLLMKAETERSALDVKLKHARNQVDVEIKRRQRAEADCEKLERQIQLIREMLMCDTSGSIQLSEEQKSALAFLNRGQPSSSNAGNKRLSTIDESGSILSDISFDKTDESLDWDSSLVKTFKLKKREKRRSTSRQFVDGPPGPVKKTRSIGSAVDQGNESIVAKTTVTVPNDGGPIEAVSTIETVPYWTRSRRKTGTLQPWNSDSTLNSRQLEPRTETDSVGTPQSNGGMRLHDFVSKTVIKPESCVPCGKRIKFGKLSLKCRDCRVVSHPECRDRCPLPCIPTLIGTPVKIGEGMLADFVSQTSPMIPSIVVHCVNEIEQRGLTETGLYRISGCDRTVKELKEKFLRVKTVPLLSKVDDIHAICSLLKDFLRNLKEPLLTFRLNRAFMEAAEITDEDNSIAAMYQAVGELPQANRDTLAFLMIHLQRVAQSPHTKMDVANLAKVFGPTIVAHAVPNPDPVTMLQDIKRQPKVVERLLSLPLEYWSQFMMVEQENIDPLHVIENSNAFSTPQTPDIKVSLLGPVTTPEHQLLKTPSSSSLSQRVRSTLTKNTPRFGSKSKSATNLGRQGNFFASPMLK
# T2 sequence (P31941 whole entry): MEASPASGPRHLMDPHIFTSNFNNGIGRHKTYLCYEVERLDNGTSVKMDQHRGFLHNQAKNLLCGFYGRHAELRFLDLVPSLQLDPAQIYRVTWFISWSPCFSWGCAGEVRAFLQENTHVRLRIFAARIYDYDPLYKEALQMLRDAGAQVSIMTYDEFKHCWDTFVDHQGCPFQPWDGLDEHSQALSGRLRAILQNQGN
# T3 sequence (Q9HC16 whole entry): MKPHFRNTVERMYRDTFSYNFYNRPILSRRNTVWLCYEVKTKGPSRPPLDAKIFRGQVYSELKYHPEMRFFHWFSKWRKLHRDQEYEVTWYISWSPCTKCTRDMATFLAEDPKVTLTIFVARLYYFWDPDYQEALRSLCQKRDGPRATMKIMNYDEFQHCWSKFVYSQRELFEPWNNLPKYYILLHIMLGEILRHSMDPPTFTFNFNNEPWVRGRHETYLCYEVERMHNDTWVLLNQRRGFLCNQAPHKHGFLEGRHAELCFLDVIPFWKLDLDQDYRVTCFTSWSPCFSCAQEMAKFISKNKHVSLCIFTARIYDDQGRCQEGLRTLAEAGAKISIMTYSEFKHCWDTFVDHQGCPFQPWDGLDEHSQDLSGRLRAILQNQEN
# T6 sequence (P09923 whole entry): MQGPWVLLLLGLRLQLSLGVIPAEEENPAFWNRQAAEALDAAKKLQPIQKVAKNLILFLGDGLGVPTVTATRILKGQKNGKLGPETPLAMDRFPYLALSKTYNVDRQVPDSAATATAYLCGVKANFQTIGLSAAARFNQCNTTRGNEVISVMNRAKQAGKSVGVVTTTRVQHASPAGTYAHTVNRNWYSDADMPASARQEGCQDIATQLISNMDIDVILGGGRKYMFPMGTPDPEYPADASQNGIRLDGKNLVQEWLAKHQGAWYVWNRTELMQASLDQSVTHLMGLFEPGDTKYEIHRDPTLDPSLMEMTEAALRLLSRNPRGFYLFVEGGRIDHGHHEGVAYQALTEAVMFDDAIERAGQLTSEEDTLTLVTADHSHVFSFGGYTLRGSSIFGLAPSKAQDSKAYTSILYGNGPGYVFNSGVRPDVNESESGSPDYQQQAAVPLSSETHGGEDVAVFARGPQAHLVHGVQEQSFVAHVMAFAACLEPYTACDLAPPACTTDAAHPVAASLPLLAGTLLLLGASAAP
# Chain of Glucose-6-phosphate 1-dehydrogenase (P11413 whole entry): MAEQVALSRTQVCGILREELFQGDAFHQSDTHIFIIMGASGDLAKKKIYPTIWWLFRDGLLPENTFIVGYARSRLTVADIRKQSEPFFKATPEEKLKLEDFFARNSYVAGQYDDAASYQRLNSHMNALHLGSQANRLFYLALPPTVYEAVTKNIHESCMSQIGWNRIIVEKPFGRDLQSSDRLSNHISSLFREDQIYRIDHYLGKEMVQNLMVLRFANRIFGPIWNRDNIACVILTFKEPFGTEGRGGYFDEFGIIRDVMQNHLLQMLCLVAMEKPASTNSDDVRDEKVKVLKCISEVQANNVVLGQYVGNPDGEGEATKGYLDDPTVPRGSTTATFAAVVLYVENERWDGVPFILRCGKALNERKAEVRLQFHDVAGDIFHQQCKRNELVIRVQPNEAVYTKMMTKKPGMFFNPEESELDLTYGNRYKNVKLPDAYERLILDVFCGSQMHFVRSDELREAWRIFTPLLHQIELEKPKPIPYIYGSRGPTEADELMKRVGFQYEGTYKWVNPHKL
# T4 sequence (Q00975 whole entry): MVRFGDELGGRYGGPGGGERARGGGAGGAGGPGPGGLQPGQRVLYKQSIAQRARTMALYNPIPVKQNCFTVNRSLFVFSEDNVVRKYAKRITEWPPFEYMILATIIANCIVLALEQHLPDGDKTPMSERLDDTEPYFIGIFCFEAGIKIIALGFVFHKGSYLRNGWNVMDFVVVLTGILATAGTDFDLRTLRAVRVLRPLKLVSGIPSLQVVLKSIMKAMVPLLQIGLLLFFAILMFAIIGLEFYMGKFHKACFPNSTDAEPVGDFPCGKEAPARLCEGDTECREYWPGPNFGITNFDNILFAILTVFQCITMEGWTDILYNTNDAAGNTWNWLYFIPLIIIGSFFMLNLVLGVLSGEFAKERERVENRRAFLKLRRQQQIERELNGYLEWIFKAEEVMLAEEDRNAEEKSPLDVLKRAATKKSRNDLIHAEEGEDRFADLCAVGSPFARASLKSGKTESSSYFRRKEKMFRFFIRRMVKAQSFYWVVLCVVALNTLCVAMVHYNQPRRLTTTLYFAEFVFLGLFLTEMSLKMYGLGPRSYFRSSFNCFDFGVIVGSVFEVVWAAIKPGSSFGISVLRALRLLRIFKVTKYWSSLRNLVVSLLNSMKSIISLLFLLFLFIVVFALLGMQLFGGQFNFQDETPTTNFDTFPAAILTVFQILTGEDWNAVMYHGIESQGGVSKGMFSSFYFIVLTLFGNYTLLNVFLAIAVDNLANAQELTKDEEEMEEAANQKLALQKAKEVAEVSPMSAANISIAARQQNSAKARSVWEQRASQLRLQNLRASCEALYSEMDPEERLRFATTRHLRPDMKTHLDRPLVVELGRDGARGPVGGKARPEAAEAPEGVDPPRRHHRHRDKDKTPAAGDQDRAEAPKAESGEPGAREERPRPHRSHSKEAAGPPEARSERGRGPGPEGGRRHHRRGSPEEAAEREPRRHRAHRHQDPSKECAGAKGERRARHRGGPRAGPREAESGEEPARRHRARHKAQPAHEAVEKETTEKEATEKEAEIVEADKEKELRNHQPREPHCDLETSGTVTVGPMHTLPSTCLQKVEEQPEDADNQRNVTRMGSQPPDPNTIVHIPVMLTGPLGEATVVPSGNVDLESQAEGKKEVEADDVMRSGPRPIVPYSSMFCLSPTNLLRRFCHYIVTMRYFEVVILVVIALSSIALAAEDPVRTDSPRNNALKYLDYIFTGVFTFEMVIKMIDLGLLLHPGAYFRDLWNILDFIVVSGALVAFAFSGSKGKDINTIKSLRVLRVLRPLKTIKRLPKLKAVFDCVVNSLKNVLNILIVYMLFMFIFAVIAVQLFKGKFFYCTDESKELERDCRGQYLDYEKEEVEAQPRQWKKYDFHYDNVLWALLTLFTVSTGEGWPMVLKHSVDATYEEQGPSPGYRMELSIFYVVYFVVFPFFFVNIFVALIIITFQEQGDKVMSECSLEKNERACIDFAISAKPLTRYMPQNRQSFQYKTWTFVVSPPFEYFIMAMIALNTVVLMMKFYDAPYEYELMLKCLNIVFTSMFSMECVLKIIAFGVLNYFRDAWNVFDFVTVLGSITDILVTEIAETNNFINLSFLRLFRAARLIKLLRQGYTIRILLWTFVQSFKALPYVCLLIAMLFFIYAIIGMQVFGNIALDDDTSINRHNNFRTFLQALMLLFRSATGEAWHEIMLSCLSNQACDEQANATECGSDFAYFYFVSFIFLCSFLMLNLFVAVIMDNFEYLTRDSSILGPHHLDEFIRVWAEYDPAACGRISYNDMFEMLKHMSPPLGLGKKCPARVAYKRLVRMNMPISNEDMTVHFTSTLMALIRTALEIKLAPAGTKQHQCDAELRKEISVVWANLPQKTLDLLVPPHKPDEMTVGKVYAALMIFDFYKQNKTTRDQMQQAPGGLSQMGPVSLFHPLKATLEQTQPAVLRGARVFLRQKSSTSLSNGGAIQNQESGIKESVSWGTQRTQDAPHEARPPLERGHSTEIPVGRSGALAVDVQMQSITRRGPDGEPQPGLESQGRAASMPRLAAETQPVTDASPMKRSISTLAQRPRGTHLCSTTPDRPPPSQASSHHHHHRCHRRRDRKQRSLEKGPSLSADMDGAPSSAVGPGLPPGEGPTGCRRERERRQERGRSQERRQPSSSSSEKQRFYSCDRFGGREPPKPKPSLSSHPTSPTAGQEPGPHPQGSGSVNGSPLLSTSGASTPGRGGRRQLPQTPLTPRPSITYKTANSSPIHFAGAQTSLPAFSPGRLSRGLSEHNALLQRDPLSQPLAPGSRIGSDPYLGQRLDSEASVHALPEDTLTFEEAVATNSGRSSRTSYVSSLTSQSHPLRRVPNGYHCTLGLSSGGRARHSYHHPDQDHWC
# T4 sequence (Q02410 whole entry): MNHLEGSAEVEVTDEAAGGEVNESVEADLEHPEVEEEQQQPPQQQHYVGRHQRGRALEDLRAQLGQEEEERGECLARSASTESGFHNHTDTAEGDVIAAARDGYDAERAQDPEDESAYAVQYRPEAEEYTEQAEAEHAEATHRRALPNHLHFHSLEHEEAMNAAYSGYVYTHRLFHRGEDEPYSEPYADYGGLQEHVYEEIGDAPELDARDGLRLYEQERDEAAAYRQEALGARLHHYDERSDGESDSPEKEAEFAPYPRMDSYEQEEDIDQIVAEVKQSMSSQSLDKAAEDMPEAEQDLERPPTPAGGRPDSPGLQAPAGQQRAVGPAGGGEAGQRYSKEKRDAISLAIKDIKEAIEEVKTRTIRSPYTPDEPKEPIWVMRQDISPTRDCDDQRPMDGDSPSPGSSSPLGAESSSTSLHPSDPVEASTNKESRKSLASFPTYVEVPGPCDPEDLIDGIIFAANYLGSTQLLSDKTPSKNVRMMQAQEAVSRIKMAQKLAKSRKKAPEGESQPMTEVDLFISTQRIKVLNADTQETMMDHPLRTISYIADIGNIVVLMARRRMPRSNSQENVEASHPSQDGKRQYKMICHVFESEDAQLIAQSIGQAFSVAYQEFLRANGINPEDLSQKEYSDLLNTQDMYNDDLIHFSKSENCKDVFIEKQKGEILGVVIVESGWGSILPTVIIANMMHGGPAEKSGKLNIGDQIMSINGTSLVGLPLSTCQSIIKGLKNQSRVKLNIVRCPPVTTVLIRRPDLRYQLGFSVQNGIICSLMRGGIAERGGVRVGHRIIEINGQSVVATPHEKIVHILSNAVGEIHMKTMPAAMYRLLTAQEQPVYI
structure (smiles),measurement,setting,value
COc1cc(SSc2cc(OC)cc([N+](=O)[O-])c2N)c(N)c([N+](=O)[O-])c1,IC50,[1],20.9 µM (inactive)
same,IC50,[2],> 54 µM (active)
same,EC50,[3],> 260 µM (inactive)
same,IC50,[4],> 100 µM (inactive)
same,IC50,[5],2.54 µM (active)
CCOc1ccc(NC(=O)Cn2sc3nc(C)cc(C)c3c2=O)cc1,IC50,[1],24.1 µM (inactive)
same,IC50,[6],13.1 µM (active)
same,CC50,[7],36.1 µM (active)
same,IC50,[4],> 100 µM (inactive)
same,IC50,[5],2.96 µM (active)
same,IC50,Large T antigen,> 100 µM (active)
same,IC50,[8],> 50 µM (inactive)
O=C(CCN1C(=O)/C(=C/c2ccccc2Cl)SC1=S)NNC(=O)c1ccccc1O,EC50,Streptococcus,14.6 µM (active)
same,EC50,Streptokinase A,8.36 µM (active)
same,EC50,[9],7.7 µM (active)
same,IC50,[10],66.5 µM (active)
same,EC50,[11],17.7 µM (active)
same,EC50,[12],3.63 µM (active)
same,EC50,[13],23.2 µM (active)
CN(C)S(=O)(=O)c1cc(NC(=O)CSc2nn(-c3ccc(Cl)cc3)c(=S)s2)ccc1Cl,EC50,HEK293 [14],> 59.7 µM (inactive)
same,EC50,HEK293 [15],> 59.7 µM (inactive)
same,IC50,HEK293 [16],11.2 µM (active)
same,IC50,HEK293 [17],4.69 µM (active)
same,EC50,HEK293 [18],13.4 µM (active)
same,IC50,HEK293 [19],5.23 µM (active)
CCOC(=O)COc1ccc(Br)cc1/C=C1\SC(N)=NC1=O,IC50,[20],7.13 µM (active)
same,IC50,[21],8.37 µM (active)
same,IC50,[22],> 100 µM (inactive)
same,IC50,[23],8.41 µM (active)
c1ccc2c(c1)ncn2CCCCOc1ccc2c(c1)CCC2,IC50,[24],2.69 µM (active)
same,AC50,[25],28.6 µM (active)
same,AC50,[26],9.21 µM (active)
same,CC50,[27],> 40 µM (active)
same,AC50,INS1,5.04 µM (active)
same,EC50,[28],24.1 µM (active)
same,EC50,[29],22.8 µM (active)
same,IC50,[30],2.1 µM (active)
CN(C)c1ncc2nc(-c3ccc(Cl)cc3)c(=O)n(Cc3ccc(F)cc3)c2n1,AC50,Cytochrome P450 3A4,inconclusive
Cc1ccc(C)c(NC(=O)c2cc[n+](C)cc2)c1,IC50,[21],2.08 µM (active)
same,IC50,[23],4.76 µM (active)
COc1ccc(C(C)=O)cc1CC1(C)C(=O)Nc2ccc(-c3ccccc3OC)cc21 (centres undefined),AC50,[25],0.627 µM (active)
same,EC50,HEK293 [14],> 59.6 µM (inactive)
same,EC50,HEK293 [15],> 59.6 µM (inactive)
same,AC50,[31],0.397 µM (active)
same,AC50,[26],2.02 µM (active)
same,AC50,[32],0.29 µM (active)
COc1cc(/C=N/n2c(S)nnc2-c2cc(C)[nH]n2)cc(OC)c1OC,IC50,[33],82.2 µM (active)
same,IC50,[4],> 100 µM (inactive)
same,IC50,[5],2.5 µM (active)

# Source: ChEMBL document CHEMBL1201862, “PubChem BioAssay data set” (2004)
